Measured values from BindingDB's records for doi:10.1016/j.bmcl.2011.06.024 (Merck Research Laboratories, 2011).

target: T1, Smoothened homolog (Homo sapiens, UniProt Q99835); assay: Displacement of [125I]-PA cyclopamine from smoothened expressed in african green monkey COS-1 cells after 10 mins by autoradiography
T1 sequence (Q99835 whole entry): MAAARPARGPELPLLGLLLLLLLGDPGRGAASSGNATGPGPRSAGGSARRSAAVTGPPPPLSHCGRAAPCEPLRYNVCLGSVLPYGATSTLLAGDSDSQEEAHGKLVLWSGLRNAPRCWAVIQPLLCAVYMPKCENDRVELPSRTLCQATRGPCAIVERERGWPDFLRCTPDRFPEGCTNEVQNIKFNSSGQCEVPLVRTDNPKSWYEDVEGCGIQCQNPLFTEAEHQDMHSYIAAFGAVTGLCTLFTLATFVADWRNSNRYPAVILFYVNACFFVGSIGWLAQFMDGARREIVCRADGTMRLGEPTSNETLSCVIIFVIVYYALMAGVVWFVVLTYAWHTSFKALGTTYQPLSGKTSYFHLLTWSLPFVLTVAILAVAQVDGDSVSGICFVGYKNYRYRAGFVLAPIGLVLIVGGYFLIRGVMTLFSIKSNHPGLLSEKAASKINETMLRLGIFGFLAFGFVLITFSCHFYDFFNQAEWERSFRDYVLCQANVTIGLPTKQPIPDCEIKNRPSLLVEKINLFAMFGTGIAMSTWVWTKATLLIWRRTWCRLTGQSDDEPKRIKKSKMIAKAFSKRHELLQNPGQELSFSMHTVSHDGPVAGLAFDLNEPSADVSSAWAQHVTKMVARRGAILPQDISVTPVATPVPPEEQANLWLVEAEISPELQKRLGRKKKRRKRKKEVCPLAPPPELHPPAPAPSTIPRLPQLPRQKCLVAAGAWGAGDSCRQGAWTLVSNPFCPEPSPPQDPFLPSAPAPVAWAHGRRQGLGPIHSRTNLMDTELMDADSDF

Row | IC50 | SMILES
1 | > 2500 nM | O=C(Nc1ccccc1-c1ccccc1)N1CCn2c(c(O)n(-c3cccc(-c4ccccc4)c3)c2=O)C1
2 | > 2500 nM | O=C(Nc1ccccc1-c1ccccc1)N1CCn2c(c(O)n(C3CC34CCCCC4)c2=O)C1 (stereo not given)
3 | > 1500 nM | COC(=O)N1CCn2c(c(O)n([C@H]3C[C@@H]3c3ccccc3)c2=O)C1
4 | > 1500 nM | CC(=O)N1CCn2c(c(O)n([C@H]3C[C@@H]3c3ccccc3)c2=O)C1
5 | > 1500 nM | O=C(C1CCCCC1)N1CCn2c(c(O)n([C@H]3C[C@@H]3c3ccccc3)c2=O)C1
6 | > 2500 nM | O=c1n2c(c(O)n1[C@H]1C[C@@H]1c1ccccc1)CN(CC1CCCCC1)CC2
7 | > 2500 nM | O=C(NCc1ccco1)N1CCn2c(c(O)n([C@H]3C[C@@H]3c3ccccc3)c2=O)C1
8 | > 2500 nM | O=C(Nc1ccccc1-c1ccccc1)N1CCn2c(c(O)n(Cc3ccccc3)c2=O)C1
9 | > 2500 nM | O=C(Nc1ccccc1-c1ccccc1)N1CCn2c(c(O)n(-c3cccc4ccccc34)c2=O)C1
10 | > 2500 nM | CCCCn1c(O)c2n(c1=O)CCN(C(=O)Nc1ccccc1-c1ccccc1)C2
11 | > 2500 nM | CN(C)C(=O)N1CCn2c(c(O)n([C@H]3C[C@@H]3c3ccccc3)c2=O)C1

target: not listed separately; assay: Antagonist activity at smoothened expressed in mouse Shh Light2 cells co-expressing Gli-dependent reporter gene assessed as inhibition of Hh pathway

Row | SMILES | IC50
12 | Cn1cc(-c2ncccc2NC(=O)N2CCn3c(c(O)n([C@H]4C[C@@H]4c4ccccc4)c3=O)C2)cn1 | 1200 nM
13 | O=C(Nc1ccccc1-c1ccccc1)c1ccc2c(c1)C(=O)N([C@H]1C[C@@H]1c1ccccc1)C2=O | 4600 nM
14 | O=C(Nc1ccccc1-c1ccccc1)N1CCN2C(=O)N([C@H]3C[C@@H]3c3ccccc3)CC2C1 (stereo not given in full) | 3000 nM
15 | CC(C)(C)C(=O)N1CCn2c(c(O)n([C@H]3C[C@@H]3c3ccccc3)c2=O)C1 | 4500 nM
16 | CCCCCCNC(=O)N1CCn2c(c(O)n([C@H]3C[C@@H]3c3ccccc3)c2=O)C1 | 1500 nM
17 | CCCCN(CCCC)C(=O)N1CCn2c(c(O)n([C@H]3C[C@@H]3c3ccccc3)c2=O)C1 | 1900 nM
18 | O=C(Nc1ccc2c(c1)OCO2)N1CCn2c(c(O)n([C@H]3C[C@@H]3c3ccccc3)c2=O)C1 | 2700 nM
19 | CN(C(=O)N1CCn2c(c(O)n([C@H]3C[C@@H]3c3ccccc3)c2=O)C1)c1ccccc1-c1ccccc1 | 1600 nM
20 | O=C(Nc1ccccc1-c1ccccc1)N1CCn2c(c(O)n(CCc3ccccc3)c2=O)C1 | 5000 nM
21 | O=C(Nc1ccccc1-c1ccccc1)N1CCn2c(c(O)n(-c3cccc(-c4ccccc4)c3)c2=O)C1 | 2500 nM
22 | COC(=O)c1cccc(NC(=O)N2CCn3c(c(O)n([C@H]4C[C@@H]4c4ccccc4)c3=O)C2)c1Cl | 2200 nM

Continued, values first:

Row | IC50 | SMILES
23 | 780 nM | O=C(Nc1cc(Cl)cc(Cl)c1)N1CCn2c(c(O)n([C@H]3C[C@@H]3c3ccccc3)c2=O)C1
24 | 600 nM | O=C(NC1CCCCC1)N1CCn2c(c(O)n([C@H]3C[C@@H]3c3ccccc3)c2=O)C1
25 | 530 nM | Cc1cccc(Cl)c1NC(=O)N1CCn2c(c(O)n([C@H]3C[C@@H]3c3ccccc3)c2=O)C1
26 | 510 nM | O=C(Nc1ccc(F)c(Cl)c1Cl)N1CCn2c(c(O)n([C@H]3C[C@@H]3c3ccccc3)c2=O)C1
27 | 370 nM | Cc1c(Cl)cccc1NC(=O)N1CCn2c(c(O)n([C@H]3C[C@@H]3c3ccccc3)c2=O)C1
28 | 340 nM | O=C(Nc1cccc(Cl)c1Cl)N1CCn2c(c(O)n([C@H]3C[C@@H]3c3ccccc3)c2=O)C1
29 | 330 nM | O=C(Nc1c(Cl)cc(C(F)(F)F)cc1Cl)N1CCn2c(c(O)n([C@H]3C[C@@H]3c3ccccc3)c2=O)C1
30 | 320 nM | O=C(Nc1ccccc1-c1ccccc1)N1CCn2c(c(O)n(C3Cc4ccccc4C3)c2=O)C1
31 | 240 nM | O=C(Nc1cccnc1-c1ccsc1)N1CCn2c(c(O)n([C@H]3C[C@@H]3c3ccccc3)c2=O)C1
32 | 180 nM | CC(C)c1ccccc1NC(=O)N1CCn2c(c(O)n([C@H]3C[C@@H]3c3ccccc3)c2=O)C1
33 | 150 nM | Cc1cc(C#N)cc(Cl)c1NC(=O)N1CCn2c(c(O)n([C@H]3C[C@@H]3c3ccccc3)c2=O)C1
34 | 89 nM | O=C(Nc1ccncc1-c1ccccc1)N1CCn2c(c(O)n([C@H]3C[C@@H]3c3ccccc3)c2=O)C1
35 | 82 nM | COc1cccc(-c2ncccc2NC(=O)N2CCn3c(c(O)n([C@H]4C[C@@H]4c4ccccc4)c3=O)C2)c1
36 | 53 nM | CS(=O)(=O)c1cc(Cl)c(NC(=O)N2CCn3c(c(O)n([C@H]4C[C@@H]4c4ccccc4)c3=O)C2)c(Cl)c1
37 | 28 nM | O=C(Nc1cccnc1-c1ccccc1)N1CCn2c(c(O)n([C@H]3C[C@@H]3c3ccccc3)c2=O)C1
38 | 18 nM | O=C(Nc1cccnc1-c1cccc(Cl)c1)N1CCn2c(c(O)n([C@H]3C[C@@H]3c3ccccc3)c2=O)C1
39 | 16 nM | O=C(Nc1ccnn1-c1ccccc1)N1CCn2c(c(O)n([C@H]3C[C@@H]3c3ccccc3)c2=O)C1

target: T1, Smoothened homolog; assay: Antagonist activity at smoothened expressed in mouse Shh Light2 cells co-expressing Gli-dependent reporter gene assessed as inhibition of Hh pathway

Row | IC50 | SMILES
40 | > 2500 nM | O=C(Nc1ccccc1-c1ccccc1)N1CCn2c(c(O)n(C3CC34CCCCC4)c2=O)C1 (stereo not given)
